According to patent US12129264B2, “Crystalline forms of a PAR4 inhibitor” (BRISTOL-MYERS SQUIBB COMPANY, priority 2018, dated 2024):

Columns and labels:
[1] = Microdissolution of co-crystals versus free form in FaSSIF (pION Microdissolution Profiler); type: physicochemical; settings: for AUC (extent of dissolution), Mean / Dissolution Rate, Mean: FaSSIF pH 6.5, 15 mL at 37° C., 150 rpm, API powder 0.2 mg/mL, N = 4; for AUC (extent of dissolution), Mean: 180 min, trapezoidal rule
Experimental: The dissolution of the N-1 form of the citric acid and the succinic acid co-crystals of the compound of formula (I) were tested against that of the free form of the compound of formula (I). The dissolution properties, rate and extent, and peak solubility were tested in FaSSIF (fasted state simulated intestinal fluid).
This experiment was performed on a pION Microdissolution Profiler™ an API sparing, low volume dissolution instrument with UV fiber optics (UVFO) probes to measure real-time dissolution profile in biorelevant media. The experimental was run under the following conditions: • Apparatus: plon Microdissolution profiler • Media: FaSSIF, pH 6.5 • Volume: 15 mL at 37° C. • Stirring: 150 rpm with small stirrer bar • Dose: API powder at 0.2 mg/mL or 3 mg/vial • Study duration: 180 min
Time points: several time points to capture initial dissolution rate and through 180 min (typical time for absorption)
The results were analyzed using UVFO Analysis: Standard curve range 0-3 μg/mL; 10 mm path length probe windows; detection wavelength 315 nm; slope ˜17 μg/mL/AU; R2=0.99.

[2] = Pharmacokinetic study of co-crystal capsules in the dog model; type: in vivo; settings: for Systemic absorption in the dog model: at relevant doses (5 mg capsule); for AUC0-24h, Mean / Cmax, Mean / Tmax: capsule, 5 mg/dog, pentagastrin pre-treated fasted male dogs, crossover in 4 dogs
Experimental: The co-crystals were tested using the following formulations: • 1. Succinic Acid co-crystal capsule (5 mg dose)—Pentagastrin pre-treated, fasted dogs • 2. Citric Acid co-crystal capsule (5 mg dose)—Pentagastrin pre-treated, fasted dogs
The Study Design is as follows:
Crossover in 4 fasted male dogs (˜10 kg); dose 5 mg/dog; flush with 50 mL water; 2-week washout between treatments; 8 blood sample points per treatments.

Compound | AUC (extent of dissolution), Mean [1] | Dissolution Rate, Mean [1] | Dissolution in FaSSIF compared with the free form [1] | Systemic absorption in the dog model [2] | AUC0-24h, Mean [2] | Cmax, Mean [2] | Tmax [2]
COc1cc(OCc2csc(-c3ccc(C(=O)N(C)C)cc3)n2)c2cc(-c3cn4nc(OC)sc4n3)oc2c1 [Free form, 4-(4-(((6-Methoxy-2-(2-methoxyimidazo[2,1-b][1,3,4]thiadiazol-6-yl)benzofuran-4-yl)oxy)methyl)thiazol-2-yl)-N,N-dimethylbenzamide] | 0 µg·min/mL | 0 µg/mL/min | – | – | – | – | –
4-(4-(((6-Methoxy-2-(2-methoxyimidazo[2,1-b][1,3,4]thiadiazol-6-yl)benzofuran-4-yl)oxy)methyl)thiazol-2-yl)-N,N-dimethylbenzamide: succinic acid co-crystal (1:0.5) [Example 1] | 272.622 µg·min/mL | 0.144 µg/mL/min | better than the free form | measurable systemic absorption | 93.97 ng·h/mL | 12.22 ng/mL | 1.5 h
4-(4-(((6-Methoxy-2-(2-methoxyimidazo[2,1-b][1,3,4]thiadiazol-6-yl)benzofuran-4-yl)oxy)methyl)thiazol-2-yl)-N,N-dimethylbenzamide: citric acid co-crystal (1:1), form N-1 [Example 2] | 988.900 µg·min/mL | 0.584 µg/mL/min | better than the free form | measurable systemic absorption | 161.61 ng·h/mL | 29.28 ng/mL | 2.0 h
